Source: PubChem BioAssay (NCI)
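All cell lines were grown in 96-well plates and treated with compound for 48 hours. At the TGI there is no net growth.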

How the values were obtained:
Assay in all cases: inhibition of tumour cell growth, NCI panel, 48 h
NCI-H522 lung = tested on: NCI-H522 lung
M14 melanoma = tested on: M14 melanoma
EKVX NSCLC = tested on: EKVX NSCLC
HCT-116 colon = tested on: HCT-116 colon
BT-549 breast = tested on: BT-549 breast
A549 NSCLC = tested on: A549 NSCLC
SF-268 CNS = tested on: SF-268 CNS
SW-620 colon = tested on: SW-620 colon
UACC-62 melanoma = tested on: UACC-62 melanoma
OVCAR-4 ovarian = tested on: OVCAR-4 ovarian
NCI-H23 lung = tested on: NCI-H23 lung
IGROV1 ovarian = tested on: IGROV1 ovarian
UACC-257 melanoma = tested on: UACC-257 melanoma
HS 578T breast = tested on: HS 578T breast
SK-MEL-28 melanoma = tested on: SK-MEL-28 melanoma
MDA-N = tested on: MDA-N
MALME-3M melanoma = tested on: MALME-3M melanoma
HL-60(TB) leukemia = tested on: HL-60(TB) leukemia
KM12 colon = tested on: KM12 colon
HT29 colon = tested on: HT29 colon
NCI-H460 lung = tested on: NCI-H460 lung
RXF 393 renal = tested on: RXF 393 renal
CAKI-1 renal = tested on: CAKI-1 renal
UO-31 renal = tested on: UO-31 renal
PC-3 prostate = tested on: PC-3 prostate
SN12C renal = tested on: SN12C renal
OVCAR-5 ovarian = tested on: OVCAR-5 ovarian
786-0 renal = tested on: 786-0 renal
HCC-2998 colon = tested on: HCC-2998 colon
ACHN renal = tested on: ACHN renal
MDA-MB-435 = tested on: MDA-MB-435
SNB-19 CNS = tested on: SNB-19 CNS
TK-10 renal = tested on: TK-10 renal
SF-295 CNS = tested on: SF-295 CNS
A498 renal = tested on: A498 renal
DU-145 prostate = tested on: DU-145 prostate
T-47D breast = tested on: T-47D breast
SK-MEL-5 melanoma = tested on: SK-MEL-5 melanoma
HOP-62 NSCLC = tested on: HOP-62 NSCLC
OVCAR-3 ovarian = tested on: OVCAR-3 ovarian
U251 CNS = tested on: U251 CNS
CCRF-CEM leukemia = tested on: CCRF-CEM leukemia
K-562 leukemia = tested on: K-562 leukemia
NCI/ADR-RES ovarian = tested on: NCI/ADR-RES ovarian
HOP-92 NSCLC = tested on: HOP-92 NSCLC
LOX IMVI melanoma = tested on: LOX IMVI melanoma
HCT-15 colon = tested on: HCT-15 colon
SR leukemia = tested on: SR leukemia
OVCAR-8 ovarian = tested on: OVCAR-8 ovarian
MOLT-4 leukemia = tested on: MOLT-4 leukemia
SK-MEL-2 melanoma = tested on: SK-MEL-2 melanoma
MDA-MB-231 breast = tested on: MDA-MB-231 breast

Measured: TGI

O=c1ccc(-c2ccccc2)n[nH]1
> 100 µM: all assays above
